Data taken from ChEMBL document CHEMBL5104202, “Structure-Uptake Relationship Studies of Oxazolidinones in Gram-Negative ESKAPE Pathogens” (J Med Chem, 2022).

Columns and labels:
Format in all cases: functional, organism-based
Acinetobacter baumannii [1] = experiment: Antibacterial activity against wild type Acinetobacter baumannii assessed as inhibition of bacterial growth
Acinetobacter baumannii [2] = experiment: Antibacterial activity against efflux pump lacking Acinetobacter baumannii assessed as inhibition of bacterial growth
Escherichia coli [3] = experiment: Antibacterial activity against efflux pump lacking/recombinant OM pore producing Escherichia coli assessed as inhibition of bacterial growth
Acinetobacter baumannii [4] = experiment: Antibacterial activity against recombinant OM pore producing Acinetobacter baumannii assessed as inhibition of bacterial growth
Pseudomonas aeruginosa [5] = experiment: Antibacterial activity against efflux pump lacking Pseudomonas aeruginosa assessed as inhibition of bacterial growth
Escherichia coli [6] = experiment: Antibacterial activity against efflux pump lacking Escherichia coli assessed as inhibition of bacterial growth
Escherichia coli [7] = experiment: Antibacterial activity against recombinant OM pore producing Escherichia coli assessed as inhibition of bacterial growth
Acinetobacter baumannii [8] = experiment: Antibacterial activity against efflux pump lacking/recombinant OM pore producing Acinetobacter baumannii assessed as inhibition of bacterial growth
Escherichia coli [9] = experiment: Antibacterial activity against wild type Escherichia coli assessed as inhibition of bacterial growth
Pseudomonas aeruginosa [10] = experiment: Antibacterial activity against wild type Pseudomonas aeruginosa assessed as inhibition of bacterial growth
Pseudomonas aeruginosa [11] = experiment: Antibacterial activity against recombinant OM pore producing Pseudomonas aeruginosa assessed as inhibition of bacterial growth
Pseudomonas aeruginosa [12] = experiment: Antibacterial activity against efflux pump lacking/recombinant OM pore producing Pseudomonas aeruginosa assessed as inhibition of bacterial growth

| Structure (SMILES) | IC50 (Acinetobacter baumannii [1]) | IC50 (Acinetobacter baumannii [2]) | IC50 (Escherichia coli [3]) | IC50 (Acinetobacter baumannii [4]) | IC50 (Pseudomonas aeruginosa [5]) | IC50 (Escherichia coli [6]) | IC50 (Escherichia coli [7]) | IC50 (Acinetobacter baumannii [8]) | IC50 (Escherichia coli [9]) | IC50 (Pseudomonas aeruginosa [10]) | IC50 (Pseudomonas aeruginosa [11]) | IC50 (Pseudomonas aeruginosa [12]) |
| --- | --- | --- | --- | --- | --- | --- | --- | --- | --- | --- | --- | --- |
| CC(C)(C)OC(=O)N[C@@H](Cc1cccc(-c2ccc(N3C[C@H](CO)OC3=O)cc2F)c1)C(=O)O | > 100 µM | > 100 µM | > 100 µM | > 100 µM | > 100 µM | > 100 µM | > 100 µM | > 100 µM | > 100 µM | > 100 µM | > 100 µM | > 100 µM |
| CCC[n+]1ccc(-c2ccc(N3C[C@H](CO)OC3=O)cc2F)cc1 | > 100 µM | 89.7 µM | 16.6 µM | 19.8 µM | > 100 µM | 12.7 µM | 28.3 µM | 19.8 µM | 43.9 µM | > 100 µM | > 100 µM | > 100 µM |
| Cc1ccc(-c2ccc(N3C[C@H](CO)OC3=O)cc2F)cc1 | > 100 µM | 2.3 µM | 0.3 µM | > 100 µM | 2.3 µM | 0.3 µM | 3.2 µM | 1.6 µM | 28 µM | > 100 µM | > 100 µM | 3.8 µM |
| O=C1O[C@@H](CO)CN1c1ccc(-c2ccccc2OC(F)(F)F)c(F)c1 | > 100 µM | 33.2 µM | 21.9 µM | 59.1 µM | 75.6 µM | 9.3 µM | 46.3 µM | 24.8 µM | 42.6 µM | > 100 µM | > 100 µM | 29.9 µM |
| C[n+]1ccccc1-c1ccc(N2C[C@H](CO)OC2=O)cc1F | > 100 µM | > 100 µM | 60.4 µM | > 100 µM | > 100 µM | 72.3 µM | > 100 µM | 33.3 µM | > 100 µM | > 100 µM | > 100 µM | 40.4 µM |
| CCOC(=O)C(C)(C)CC#Cc1ccc(N2C[C@H](CO)OC2=O)cc1F | > 100 µM | 44 µM | 21.9 µM | 60.3 µM | > 100 µM | 17.8 µM | 65.3 µM | 30.3 µM | > 100 µM | > 100 µM | > 100 µM | 30.1 µM |
| C[n+]1cccc(-c2ccc(N3C[C@H](CO)OC3=O)cc2F)c1 | > 100 µM | > 100 µM | 88.8 µM | > 100 µM | > 100 µM | 70.6 µM | > 100 µM | > 100 µM | > 100 µM | > 100 µM | > 100 µM | > 100 µM |
| O=C1O[C@@H](CO)CN1c1ccc(-c2cc[n+](Cc3ccccc3)cc2)c(F)c1 | > 100 µM | 23.4 µM | 15.6 µM | 15.6 µM | 4.6 µM | 15.5 µM | 23.3 µM | 13 µM | 51.6 µM | > 100 µM | 41.7 µM | 1.1 µM |
| O=C1O[C@@H](CO)CN1c1ccc(-c2ccc(-c3ccccn3)cc2)c(F)c1 | 35.3 µM | 21.5 µM | 55.2 µM | 35.3 µM | > 100 µM | 55.6 µM | 47.2 µM | 21.5 µM | 76.2 µM | > 100 µM | > 100 µM | > 100 µM |
| CC(C(=O)NCC#Cc1ccc(N2C[C@H](CO)OC2=O)cc1F)N1CCN(C(=O)OC(C)(C)C)CC1 (some centres not stated) | > 100 µM | > 100 µM | 62.6 µM | > 100 µM | > 100 µM | 50.9 µM | > 100 µM | > 100 µM | > 100 µM | > 100 µM | > 100 µM | > 100 µM |
| N/C(=N/O)c1ccc(-c2ccc(N3C[C@H](CO)OC3=O)cc2F)cc1 | 22.1 µM | 1.2 µM | 1 µM | 2.8 µM | 5.1 µM | 0.6 µM | 7.5 µM | 0.9 µM | 55.9 µM | > 100 µM | 63.6 µM | 1.8 µM |
| O=C1O[C@@H](CO)CN1c1ccc(-c2ccc(SC(F)(F)F)cc2)c(F)c1 | 63.5 µM | 9.1 µM | 4.9 µM | 23.5 µM | 78.2 µM | 6.9 µM | 9.4 µM | 8.1 µM | 35.1 µM | > 100 µM | > 100 µM | 6.9 µM |
| Nc1cccc(C#Cc2ccc(N3C[C@H](CO)OC3=O)cc2F)n1 | > 100 µM | 83.9 µM | 20.5 µM | 49.8 µM | > 100 µM | 34.2 µM | 19.2 µM | 76.7 µM | 59 µM | > 100 µM | > 100 µM | > 100 µM |
| COc1ccc(CNC(=O)OC(C)(C)C)cc1OCC#Cc1ccc(N2C[C@H](CO)OC2=O)cc1F | > 100 µM | 72.2 µM | 44.4 µM | 42.4 µM | > 100 µM | 42.9 µM | > 100 µM | 28.7 µM | > 100 µM | > 100 µM | > 100 µM | 46.9 µM |
| O=C1O[C@@H](CO)CN1c1ccc(-c2cnoc2)c(F)c1 | > 100 µM | 83.4 µM | 30.6 µM | > 100 µM | 22.7 µM | 23.6 µM | 56.1 µM | 83.4 µM | > 100 µM | > 100 µM | > 100 µM | 32.9 µM |
| COc1ccc(-c2ccc(N3C[C@H](CO)OC3=O)cc2F)cc1 | > 100 µM | 0.7 µM | 0.3 µM | > 100 µM | 0.7 µM | 0.2 µM | 3.4 µM | 0.6 µM | 23.3 µM | > 100 µM | > 100 µM | 1.2 µM |
| C[n+]1ccc2cc(-c3ccc(N4C[C@H](CO)OC4=O)cc3F)ccc2c1 | > 100 µM | 29.7 µM | 11.4 µM | 20.1 µM | > 100 µM | 4 µM | 30 µM | 27.9 µM | 63.6 µM | > 100 µM | > 100 µM | > 100 µM |
| NC(CO)CC#Cc1ccc(N2C[C@H](CO)OC2=O)cc1F (some centres not stated) | > 100 µM | > 100 µM | > 100 µM | > 100 µM | > 100 µM | > 100 µM | > 100 µM | > 100 µM | > 100 µM | > 100 µM | > 100 µM | > 100 µM |
| CC(C)[n+]1ccc(-c2ccc(N3C[C@H](CO)OC3=O)cc2F)cc1 | 89.5 µM | 34.5 µM | 16.6 µM | 22 µM | 35.1 µM | 16.9 µM | 42.8 µM | 22.3 µM | 81.6 µM | > 100 µM | > 100 µM | 36.6 µM |
| COc1ccc(CN)cc1OCC#Cc1ccc(N2C[C@H](CO)OC2=O)cc1F | > 100 µM | > 100 µM | > 100 µM | > 100 µM | > 100 µM | > 100 µM | > 100 µM | > 100 µM | > 100 µM | > 100 µM | > 100 µM | > 100 µM |
| COC(=O)c1ccccc1-c1ccc(N2C[C@H](CO)OC2=O)cc1F | > 100 µM | > 100 µM | 39.7 µM | > 100 µM | > 100 µM | 64.6 µM | 61.5 µM | > 100 µM | 96 µM | > 100 µM | > 100 µM | > 100 µM |
| CC(=O)N1CCN(CC#Cc2ccc(N3C[C@H](CO)OC3=O)cc2F)CC1 | > 100 µM | > 100 µM | > 100 µM | > 100 µM | > 100 µM | > 100 µM | > 100 µM | > 100 µM | > 100 µM | > 100 µM | > 100 µM | > 100 µM |
| N[C@@H](Cc1cccc(-c2ccc(N3C[C@H](CO)OC3=O)cc2F)c1)C(=O)O | > 100 µM | > 100 µM | > 100 µM | > 100 µM | > 100 µM | > 100 µM | > 100 µM | > 100 µM | > 100 µM | > 100 µM | > 100 µM | > 100 µM |
| CC[n+]1ccc(-c2ccc(N3C[C@H](CO)OC3=O)cc2F)cc1 | > 100 µM | > 100 µM | 15.9 µM | > 100 µM | 57.4 µM | 13.7 µM | 36 µM | 38.5 µM | 43.8 µM | > 100 µM | > 100 µM | 42.3 µM |
| O=C1O[C@@H](CO)CN1c1ccc(-c2cc(F)cc(F)c2)c(F)c1 | > 100 µM | > 100 µM | > 100 µM | > 100 µM | > 100 µM | > 100 µM | > 100 µM | > 100 µM | > 100 µM | > 100 µM | > 100 µM | > 100 µM |
| CCOC(=O)C1CCN(CC#Cc2ccc(N3C[C@H](CO)OC3=O)cc2F)CC1 | > 100 µM | > 100 µM | > 100 µM | > 100 µM | > 100 µM | > 100 µM | > 100 µM | > 100 µM | > 100 µM | > 100 µM | > 100 µM | > 100 µM |
